{"source": "patent US20150272934A1", "about": "“USE OF CSE INHIBITORS FOR THE TREATMENT OF CUTANEOUS INJURIES OR CONDITIONS AND SLEEP-RELATED BREATHING DISORDERS” (SOVA PHARMACEUTICALS, INC., priority 2012, published 2015)", "key": {"[1]": {"test_system": "hypoxic ventilatory response", "experiment": "Rat hypoxic ventilatory response (HVR) in sham and carotid sinus nerve (CSN) transection animals", "type": "in vivo, Sprague Dawley rats", "settings": "100 mg/kg L-PAG", "description": "Male Sprague Dawley rats from Harlan Laboratories weighing 350±31 g (Mean±SD); were maintained on a 12 hour light:dark cycle (6 am lights on) with food and water ad libitum.\nL-Propargyl Glycine (L-PAG) was solubilized in saline at 33.3 mg/ml.\nCarotid sinus nerve (CSN) transaction—Under appropriate anesthesia the rat's neck is shaved and prepped for surgery with betadine solution. An incision is made in the throat area extending about 2 cm. The underlying musculature is incised to expose the carotid bifurcation on both sides. A silk suture is looped around the proximal external carotid and retracted laterally for control. […] The carotid sinus nerve is transected where it originates on the exposed part of the glossopharyngeal and ascends to the carotid bifurcation.\nAnimals were pre-habituated to the test environment on 2 separate 45 minute periods prior to the test day. Following administration of test compounds animals were placed inside the whole body plethysmography chamber. The animals were allowed to acclimate to the environment for 60 minutes while breathing a 21% O2 balance N2 gas mix. After acclimation, the following gas mix protocol was followed:\nCycles were designated to be the periods of both normoxia and hypoxia. Each experiment consisted of 2 cycles (or repeated sets) of the HVR to a normoxic-hypoxic shift. The cycles were 30 minutes in duration to allow for serial sampling from baseline and all 4 WBP test chambers. Each sampling period was of 4 minutes duration and was in a varying order but was always preceded by a 4 minute baseline. The sampling periods were calculated to allow for equilibration of the gas mixture in the WBP chamber. Switching of the multiplexer (MUX) line sampler system was achieved through use of a user defined program. The gas mixtures were likewise switched automatically using a user defined custom mix program and the Sable Systems/Alicat Multi Flow Controller utility.\nAnalysis of data was performed in GraphPad Prism (v5) using embedded 1-way Analysis of Variance (ANOVA) followed by Dunnett's or Tukey's MCT post hoc testing where appropriate. Bartlett's Equal Variance tests were performed on all data sets, however failure of equal variance was not considered to impinge the validity of the test."}, "[2]": {"experiment": "Half-life of L-propargylglycine (statement in dosing rationale)"}, "[3]": {"test_system": "deep partial thickness cutaneous burn injury, zone of stasis", "experiment": "Comb burn model for cutaneous burn", "type": "in vivo, Sprague-Dawley rats"}}, "data": [{"smiles": "C#CC[C@H](N)C(=O)O", "note": "[L-propargylglycine]", "values": [{"measurement": "HVR (change in slope of minute ventilation)", "setting": "[1]; CSN transection animals", "value": "did not change"}, {"measurement": "Increase of minute ventilation (VE) when FiO2 changed from 21% to 10%", "setting": "[1]; CSN transection animals", "value": 22, "unit": "%"}, {"measurement": "Increase of minute ventilation (VE) when FiO2 changed from 21% to 10%", "setting": "[1]; sham animals", "value": 51, "unit": "%"}, {"measurement": "HVR (change in slope of minute ventilation)", "setting": "[1]; sham animals, p<0.05", "value": "significantly reduced"}, {"measurement": "half-life", "setting": "[2]", "value": "very long"}, {"measurement": "Viability of zones of stasis/interspaces on gross examination (burn progression)", "setting": "[3]; L-propargylglycine 100 mg/kg IP Day 0, Compound 1 20 mg/kg PO once daily, 6-day time course, versus control animals", "value": "maintain viability"}, {"measurement": "Perfusion in zones of stasis/interspace areas (LDI analysis)", "setting": "[3]; over time course, control animals showed a decrease in perfusion", "value": "perfusion is maintained"}, {"measurement": "Blinded photo grading of treated interspaces versus control interspaces", "setting": "[3]; within 48-72 hours, less injured versus worse/the same scale", "value": "less injured than controls"}]}]}
